Key:
[1] = xn = mol fraction of the nth substance listed; conditions: 101 kPa, Liquid, Vibrating tube method
[2] = 283.15 K; 101 kPa; Liquid; Vibrating tube method

CC(C)NCCO [2-isopropylaminoethanol] + O
mass density [kg/m3], [1]
Conditions	x1 = 0.00785	x1 = 0.00993	x1 = 0.0147	x1 = 0.02052	x1 = 0.02925	x1 = 0.04009	x1 = 0.04971	x1 = 0.0589	x1 = 0.06926	x1 = 0.08132
283.15 K	998.279	997.915	997.627	997.186	997.048	997.046	996.952	996.873	996.18	994.687
288.15 K	997.569	997.164	996.747	996.156	995.726	995.322	994.86	994.475	993.417	991.662
293.15 K	996.602	996.129	995.555	994.798	994.178	993.399	992.61	991.925	990.602	988.598
298.15 K	995.343	994.859	994.252	993.36	992.43	991.335	990.229	989.248	987.663	985.438
303.15 K	993.837	993.31	992.597	991.578	990.428	989.011	987.652	986.463	984.639	982.2

O [water]
Conditions	mass density [kg/m3]
[2]	999.699
